In brackets after ≈: the same amount, converted by molar mass.
Key:
Pseudomonas aeruginosa = assay: Minimum inhibitory concentration (MIC), microtitration dilution method of Heifetz et al.; assay type: cell-based; conditions: Table 2
Procedure: (§1) The compounds of this invention display antibacterial activity when tested by the microtitration dilution method reported by Heifetz et al., Antimicr. Agents & Chemoth., 6. 124 (1974). Minimum inhibitory concentrations (MICs, in μg/ml) for but a few representative compounds according to this invention were determined by the above-mentioned method.

Streptococcus faecium = assay: as above; assay type: cell-based; conditions: Table 2
Procedure: as §1

Escherichia coli = assay: as above; assay type: cell-based; conditions: Table 2
Procedure: as §1

Klebsiella oxytoca = assay: as above; assay type: cell-based; conditions: Table 2
Procedure: as §1

Staphylococcus aureus = assay: as above; assay type: cell-based; conditions: Table 2
Procedure: as §1

Streptococcus faecalis = assay: as above; assay type: cell-based
Procedure: as §1

Enterobacter cloacae = assay: as above; assay type: cell-based; set-up: unit not given here; conditions: Table 2
[1] = from Tables 2, 3 and 4

CC(C)(C)n1cc(C(=O)O)c(=O)c2cc(F)c(N3C[C@@H]4CC[C@H]3CN4)nc21 [Example 23, 7-(1S,4S-2,5-diazabicyclo[2.2.2]octan-2-yl)-1-(1,1-dimethylethyl)-1,4-dihydro-6-fluoro-4-oxo-1,8-naphthyridine-3-carboxylic acid]
MIC P. aer. (Pseudomonas aeruginosa): 1.0 µg/mL (≈ 2.67 µM) | MIC S. faeci. (Streptococcus faecium): 2.0 µg/mL (≈ 5.34 µM) | MIC E. coli (Escherichia coli): 0.13 µg/mL (≈ 0.347 µM) | MIC K. oxyto. (Klebsiella oxytoca): 0.5 µg/mL (≈ 1.34 µM) | MIC S. aur. (Staphylococcus aureus): 0.03 µg/mL (≈ 0.0801 µM) | MIC S. faecal. (Streptococcus faecalis; Table 2, Streptococcus faecalis): 0.5 µg/mL (≈ 1.34 µM) | MIC E. clo. (Enterobacter cloacae): 0.06

CC(C)(C)n1cc(C(=O)O)c(=O)c2cc(F)c(N3C[C@H]4C[C@@H]3CN4)nc21 [Example 30, 7-(1R,4R-2,5-diazabicyclo[2.2.1]heptan-2-yl)-1-(1,1-dimethylethyl)-1,4-dihydro-6-fluoro-4-oxo-1,8-naphthyridine-3-carboxylic acid]
combination of anti-bacterial, toxicity, and water-solubility properties [1]: highly advantageous combination of the above mentioned properties

O=C(O)c1cn(C2CC2)c2cc(N3CCNCC3)c(F)cc2c1=O [Cip., 1-cyclopropyl-6-fluoro-1,4-dihydro-7-(1-piperazinyl)-4-oxo-quinoline-3-carboxylic acid, reference compound]
MIC (Streptococcus faecalis; Enterococcus faecalis, read-out: MIC S. faecal.): 0.5 µg/mL (≈ 1.51 µM)

— patent US4965273A, “Certain 1-tertiary-butyl-naphthyridone carboxylic acid derivatives anti-bacterial agents” (priority 1988, dated 1990)
